Laboratory results from patent US8435975B2, “Steroidal esters of 17-oximino-5-androsten-3beta-ol” (Council of Scientific & Industrial Research, priority 2007, dated 2013).
Several values for one entry are separate records, joined by “and”; a condition that tells them apart may be missing. Identical values can stand only once. Entries after “also recorded” stand apart in the source; their conditions may differ.

Columns and labels:
[1] = tested on: human prostate cancer cell line (DU-145); experiment: Growth inhibitory activity assay (MTT assay), in vitro antiproliferative activity; assay type: cell-based; conditions: DU-145 cells; for % growth inhibition (mean ± SEM) / inhibition at 0.01 µg/mL / inhibition at 0.5 µg/mL / inhibition at 1 µg/mL / inhibition at 2 µg/mL / inhibition at 5 µg/mL: 48 hr; for antiproliferative activity (in words): 0.01-5.0 μg/ml; for inhibition at 0.01 µg/mL / inhibition at 0.5 µg/mL / inhibition at 1 µg/mL / inhibition at 2 µg/mL / inhibition at 5 µg/mL: Homo sapiens, DU-145, 48 h, read-out: % growth inhibition (mean ± SEM)
Experimental: 1) In Vitro Antiproliferative Activity Against Human Prostate Cancer Cell Line (DU-145)
Compounds were screened for antiproliferative activity on human prostate cell line DU-145 at National Centre of Human Genome Studies and Research. Panjab University, Chandigarh. All the compounds (10 to 16), Finasteride and starting material (9) were tested at five different concentrations: 0.01, 0.5, 1.0, 2.0, and 5.0 μg/ml. Finasteride was the positive control in this growth inhibitory assay.
Growth Inhibitory Activity Assay (MTT Assay)
We investigated the effect of newly synthesized compounds on cell growth inhibition using MTT assay. This assay quantifies the viable cells by observing the reduction of tetrazolium salt, MTT to formazan crystals by the live cells. Based on the absorbance of the cell sample after the test is carried out, cell viable can be measured [Loveland, B. E.; Jones, T. G.; Mackay. I. R.; Vaillant, F.; Wang, Z. X.; Hertzog, P. J. Biochem. International 1992, 27, 501 and Wright, S. A.; Thomas, L. N.; Douglas, R. C.; Lazier, C. B.; Rittmaster, R. S. J. Clin. Invest. 1996, 98, 2558]. Cells were cultured at a density of 5×10^3 cells/well in 96 well plates at 37° C. in 5.0% CO2 atmosphere and were allowed to attach for 24 hr. The cells were treated in triplicate with graded concentration of sample and reference drug Finasteride at 37° C. for 48 hr. A 20 μl aliquot of MTT solution was added directly to all the appropriate wells. Following 4 hr of incubation at […], the media was removed and formazan crystals, which results from the reduction of MTT by active cell were dissolved in 100 μl DMSO and vigorously mixed to dissolve the reacted dye. The absorbance of each well was read on Elisa plate reader (Merck) at 570 nm. The spectrometer was calibrated to zero absorbance using culture medium without cells. The relative cell viability (%) related to control well containing cell culture medium without drug was calculated by [A]test/[A]control×100. % Growth Inhibition=[OD]control−[OD]test/[OD]control×100 Results: […]

[2] = In vitro cytotoxicity using mouse macrophages (acute toxicity), MTT assay; assay type: cell-based; conditions: both sexes, Balb C; mouse macrophages, from linear equation of MTT data; read-out: LC50 (concentration lethal to 50% population of cells)
Experimental: (§1) All steroids were dissolved in ethanol and diluted to appropriate concentration: 0.01, 0.5, 1.0, 2.0, 5.0 μg/ml from the two stock solution of 1 mg/ml and […]. Stocks were maintained at room temperature.
(§2) […] Approximately 1 ml of Phosphate buffer saline preincubated at 37° C. was injected into cavity. The abdomen was lavaged for 10 min and fluid along with macrophages were taken out using a syringe into polypropylene tube. The phosphate solution was spun at 800 rpm for 5-10 min and cells were resuspended in 1 ml RPMI media. Cell number was counted using haemocytometer.
(§3) Cells (mouse macrophages) were plated at a density of 5×10^3 cells/well in 96 plate at 37° C. in 5% CO2. Cells were exposed in graded concentration of compounds at designated various concentration. Each concentration was tested in triplicate wells. After 48 hr fresh MTT 20 μl (1 mg/ml) was added directly to all the wells and culture was incubated for 4 hr at 37° C. During this incubation, MTT was converted into a water insoluble formazan complex by metabolic activity of viable cells. Formazan crystal were taken and dissolved in 100 μl of DMSO, which give light pink colour. The absorbance of each well was read on Elisa plate reader (Merck) at 570 nm. The spectrometer was calibrated to zero absorbance using culture medium without cells. The relative cell viability (%) related to control well containing cell culture medium without drug was calculated by [A]test/[A]control×100. % Cell Viability=[A]test/[A]control×100 [A]test=absorbance test sample [A]control=absorbance control sample Results: LC50: Concentration of the Compound in μg/ml (μm), Lethal to 50% Population of Cells.
(§4) The assay quantifies the viable cells, after […] incubation of cells with five different concentrations.

[3] = tested on: mouse macrophages (Balb C); experiment: as above; assay type: cell-based; conditions: for toxicity to mouse macrophages (in words): 0.01-5.0 μg/ml
Experimental: as §1, §2, §3, §4

5α-reductase = experiment: In vivo effect on serum testosterone level (5α-reductase inhibitory activity), ELISA; parameters: species or system Sprague Dawley rats; conditions: for Serum levels of Testosterone, T: Sprague Dawley male rats, intraperitoneal, Finasteride 40 mg/kg and equimolar dose of compounds, 6 hr after treatment; for effect on serum testosterone level (in words): rats, 6 hr post dose, compared to control
Experimental: Animals (Sprague Dawley male rats weighing 150-200 g) were divided into 3 groups; vehicle (control), Finasteride (standard), treated (test sample) and each group consist of 5 animals. Sprague Dawley rats were treated intraperitoneally with Finasteride 40 mg/kg and equimolar dose of compounds. After 6 hr of treatment, blood was withdrawn by cardiac puncture under diethyl ether anesthesia and serum was separated from cells by centrifugation. Plasma testosterone values were obtained by ELISA plate reader at […] and are given in ng/ml.
The aliquots of 50 μl of each of standards, control and unknown (serum samples) were added to Testosterone Antibody coated wells. 100 μl of HRP-testosterone conjugate was added to all the wells and the plates were shaken gently on a shaker for proper mixing of the reagents. Following 4 hr of incubation at 37° C., the incubation mixture was removed. The wells were washed with phosphate buffer for 5-6 times (200 μl each time), followed by addition of 100 μl of TMB/H2O2 substrate in each of the wells. The plates were further incubated at 37° C. for 20 minutes. At the end of incubation reaction was stopped by using 100 μl of 0.5 M H2SO4 as stopping reagent. The absorbance of each well was read on Elisa plate reader at 450 nm [Rassaie, M. J.; Kumari, G. L.; Pandey, P. K.; Gupta, N.; Kochupillai, N.; Grover, P. K. Steroids 1992, 57, 288 and Hosoda, H.; Yoshida, H.; Sakai, Y.; Miyairi, S.; Nambara, T. Chem. Pharm. Bull. 1980, 28, 3035]
Intact male rats (Sprague Dawley, 200-250 g) were used in the designed study in which various compounds were compared for in vivo 5α-reductase inhibitory potency, as judged by the their ability to attenuate the conversion of testosterone into dihydrotestosterone (DHT). […] The procedure measure T equally well, and method met all the requirement of precision, accuracy, sensitivity and selectivity.

[4] = both, Balb C, mouse, 48 h, 0.01 μg/ml
[5] = both, Balb C, mouse, 48 h, 0.5 μg/ml
[6] = both, Balb C, mouse, 48 h, 1 μg/ml
[7] = both, Balb C, mouse, 48 h, 2 μg/ml
[8] = both, Balb C, mouse, 48 h, 5 μg/ml

| SMILES | % growth inhibition (mean ± SEM) ([1]; 5.0 μg/ml) | antiproliferative activity (in words) [1] | CC50 at 48 h [2] [µM] | % viable Cells (mean ± SEM) ([3]; mouse macrophages, 0.01 μg/ml) [%] | % viable Cells (mean ± SEM) ([3]; mouse macrophages, 0.5 μg/ml) [%] | % viable Cells (mean ± SEM) ([3]; mouse macrophages, 1.0 μg/ml) [%] | % viable Cells (mean ± SEM) ([3]; mouse macrophages, 2.0 μg/ml) [%] | % viable Cells (mean ± SEM) ([3]; mouse macrophages, 5.0 μg/ml) [%] | toxicity to mouse macrophages (in words) ([3]; mouse macrophages) | Serum levels of Testosterone, T (5α-reductase) | effect on serum testosterone level (in words) (5α-reductase) | inhibition at 0.01 µg/mL ([1]; 0.01 μg/ml) [%] | inhibition at 0.5 µg/mL ([1]; 0.5 μg/ml) [%] | inhibition at 1 µg/mL ([1]; 1.0 μg/ml) [%] | inhibition at 2 µg/mL ([1]; 2.0 μg/ml) [%] | inhibition at 5 µg/mL ([1]; 5.0 μg/ml) [%] | % viable Cells (mean ± SEM) [3, 4] [%] | % viable Cells (mean ± SEM) [3, 5] [%] | % viable Cells (mean ± SEM) [3, 6] [%] | % viable Cells (mean ± SEM) [3, 7] [%] | other results |
| --- | --- | --- | --- | --- | --- | --- | --- | --- | --- | --- | --- | --- | --- | --- | --- | --- | --- | --- | --- | --- | --- |
| C[C@]12CC[C@H](O)CC1=CC[C@@H]1[C@@H]2CC[C@]2(C)C(=NO)CC[C@@H]12 [Parent Compound 9, 17-oximino-5-androsten-3β-ol] | Ni^a | not shown any significant inhibitory effect on cell proliferation; also recorded: not shown significant antiproliferative activity | – | – | – | – | – | – | – | – | – | – | – | – | – | – | – | – | – | – | % growth inhibition (mean ± SEM) ([1]; 0.01 μg/ml): Ni^a; % growth inhibition (mean ± SEM) ([1]; 0.5 μg/ml): Ni^a; % growth inhibition (mean ± SEM) ([1]; 1.0 μg/ml): Ni^a; % growth inhibition (mean ± SEM) ([1]; 2.0 μg/ml): Ni^a |
| C[C@]12CC[C@H](OC(=O)COc3ccccc3)CC1=CC[C@@H]1[C@@H]2CC[C@]2(C)C(=NO)CC[C@@H]12 [Compound 16, 17-oximino-5-androsten-3β-yl phenoxyacetate] | – | – | 89 | 80.79 ± 2.30 | 78.32 ± 0.89 | 77.04 ± 0.23 | 77.31 ± 0.37 | 77.37 ± 0.16 | non toxic to mouse macrophages | 0.85 ng/mL | Significant increase in level of serum testosterone level | 33.6 ± 7.66 | 24.2 ± 6.37 | 36.2 ± 9.85 | 76.5 ± 5.58 | 87.8 ± 1.11 | – | – | – | – | – |
| C[C@]12CC[C@H](OC(=O)c3ccc([N+](=O)[O-])cc3)CC1=CC[C@@H]1[C@@H]2CC[C@]2(C)C(=NO)CC[C@@H]12 [Compound 11, 17-oximino-5-androsten-3β-yl 4-nitrobenzoate] | 81.53 ± 1.79% | relatively less activity than above compounds but still better than Finasteride | 19.5 | – | – | – | – | – | – | 1.01 ng/mL | loss of activity | 41.5 ± 0.71 | 60.5 ± 4.9 | 67.3 ± 3.7 | 74 ± 0.77 | 81 to 84 | 88.79 ± 0.19 | 86.50 ± 0.107 | 76.74 ± 0.107 | 76.30 ± 0.46 | % viable Cells (mean ± SEM) [3, 8]: 75.85 ± 0.259% |
| C[C@]12CC[C@H](OC(=O)c3ccccc3)CC1=CC[C@@H]1[C@@H]2CC[C@]2(C)C(=NO)CC[C@@H]12 [Compound 13, 17-oximino-5-androsten-3β-yl benzoate] | 91.10 ± 2.10% | more potent than the reference Finasteride | 89.4 | 87.71 ± 0.29 | 84.74 ± 0.27 | 83.61 ± 0.20 | 83.85 ± 0.28 | 82.99 ± 0.36 | non toxic to mouse macrophages | 1.05 ± 0.08 ng/mL and 1.05 ng/mL | – | 47 ± 1.67 | 48.9 ± 1.66 | 67.6 ± 1.62 | 85.9 ± 4.08 | > 90 | – | – | – | – | – |
| C[C@]12CC[C@H](OC(=O)c3ccc(N)cc3)CC1=CC[C@@H]1[C@@H]2CC[C@]2(C)C(=NO)CC[C@@H]12 [Compound 14, 17-oximino-5-androsten-3β-yl 4-aminobenzoate] | 91.02 ± 1.25% | more potent than the reference Finasteride | 29.4 | – | – | – | – | – | – | 1.19 ng/mL | increased activity | 71.8 ± 4.24 | 62.1 ± 11.4 | 79.5 ± 7.76 | 83.9 ± 6.7 | > 90 | 85.75 ± 0.28 | 77.69 ± 0.38 | 76.80 ± 0.23 | 75.82 ± 0.33 | % viable Cells (mean ± SEM) [3, 8]: 72.82 ± 0.28% |
